# Laboratory results published in patent US20250092035A1, “ISOCITRATE DEHYDROGENASE 1 INHIBITORS AND METHODS OF USE THEREOF” (THE WISTAR INSTITUTE OF ANATOMY AND BIOLOGY, priority 2022, published 2025).
# How the values were obtained:
# MiaPaCa-2 PC cells = assay: ROS levels (DCFDA assay); type: cell-based, human
# Description: ROS and 8-OHdG quantification. Cells were incubated in a 96-well plate with 10 μM H2-DCFDA (Life Technology, D399) for 45 min in serum-free media to detect total intracellular ROS. For mitochondrial-specific ROS, cells were incubated with 5 μM MitoSOX Red (Life Technologies, M36008) for 30 min in serum-free media. Cells were washed with PBS, and fluorescence measured according to manufacturer instructions using a Microplate Reader (GloMax Explorer system, Promega). 8-OHdG was measured according to the manufacturer's instructions (Abcam, AB201734). Readouts were normalized to cell number.
# PC cells = assay: Oxygen consumption rate (Seahorse); type: cell-based, human
# Description: Cell bioenergetic assays. Oxygen consumption rates (OCR) and extracellular acidification rates (ECAR) were measured using the Seahorse XFp Extracellular Flux Analyzer (Seahorse Bioscience) according to the manufacturer's instructions. For OCR experiments, cells were cultured in 4 mM glutamine, 5% FBS, and the indicated glucose levels for 24-36 hours. Mitochondrial membrane potential was measured with TMRE staining (Invitrogen, T669) according to the manufacturer's instructions. […] NADPH (abcam, ab65349), GSH/GSSG ratio (Promega, V6611), and ATP (abcam, 83355) measurements were performed according to the manufacturer's instructions. All readouts were normalized to cell number.
# KPC allografts = assay: Subcutaneous KPC allografts in nude mice; type: in vivo, mouse; settings: flanks of nude mice
# Description: (§1) In vivo studies. […] Mice were maintained under pathogen-free conditions in the animal facility. No additional food or nutrient-contained bedding provided to the animals during these studies. […] Mice with subcutaneous PDX were purchased from The Jackson Laboratory (#TM01212). […] For flank xenograft experiments, 1×10^6 cells were suspended in 200 μL of a PBS:matrigel solution (1:1) and injected subcutaneously into the right flank of mice. […] Equal number of male and female mice were used. […] For the indicated experiments, hyperglycemia was induced by allowing mice to drink high glucose content water (30% dextrose; abbreviated as D30 water) starting two weeks before cancer cell implantation. […] An equal volume of vehicle was administrated to control mice. NAC water (1.2 g/L) was refreshed twice weekly for the indicated experiments. A high magnesium diet, magnesium sulfate water (MgSO4, 1.5 g/L) was used for the indicated experiments. For all flank xenograft experiments, tumor volumes were measured twice per week using a caliper (volume=length×width^2/2). Upon termination of animal experiments, mice were euthanized using carbon dioxide inhalation followed by cervical dislocation, and tumors were harvested. Body weights were measured once weekly for the indicated time.
# murine PC models = assay: KPC and tamoxifen-inducible KP−/−C mouse models; type: in vivo; settings: two difficult-to-treat murine PC models
# Description: In vivo studies. […] Mice were maintained under pathogen-free conditions in the animal facility. No additional food or nutrient-contained bedding provided to the animals during these studies. […] Mice on a mixed background were bred in-house at the CRUK Beatson Institute and maintained in conventional caging with environmental enrichment, access to standard chow and water ad libitum. […] Mice were monitored 3 times weekly and when a diagnosis of pancreatic cancer was made by abdominal palpation, this was confirmed by high-resolution ultrasound imaging, using the VisualSonics Vevo 3100 preclinical imaging platform (FUJIFILM VisualSonics, Toronto, Canada). Anesthesia was induced and maintained with a mixture of isoflurane and medical air. Mice were imaged weekly to monitor tumor progression and tumor volume was assessed for each mouse and plotted longitudinally. […] Tamoxifen dissolved in corn oil at 20 mg/ml, and animals received tamoxifen (75 mg/kg, IP administration, once daily) for six consecutive days. For flank xenograft experiments, 1×10^6 cells were suspended in 200 μL of a PBS:matrigel solution (1:1) and injected subcutaneously into the right flank of mice. […] For all flank xenograft experiments, tumor volumes were measured twice per week using a caliper (volume=length×width^2/2). […] Body weights were measured once weekly for the indicated time. […]
# MiaPaCa-2 cells = settings: PC cells
# IDH1 = IDH1 (Homo sapiens, UniProt O75874); assay: Cell-free wtIDH1 activity (fluorometric NADPH); type: biochemical; design: purchased RD systems; settings: Mg2+ reduced to 0.1 mM
# Description: IDH activity assay. Cell-based wtIDH activity is measured by quantitation of IDH-dependent NADPH synthesis (Abcam, ab 102528). The reaction measures the activity of both IDH1 and IDH2 isoenzymes. IDH1 activity is specifically measured using the same assay after transient siRNA silencing of IDH2 (Extended Data FIG. 6i). The opposite approach is used to estimate IDH2 activity. All readouts were normalized to cell number. Cell-free wtIDH1 activity was performed by a fluorometric assay measuring NADPH levels at 355/460 nm. The assay contained 0.25 nM human recombinant IDH1 (RD systems), 30 μM isocitrate, and 30 μM NADP^+ in 20 μL of 100 mM Tris-HCL, pH8, 0.2 mM DTT, 0.05% CHAPS, and MgCl2 at the indicated levels. Formation of NADPH was measured over 40 min at 5 min intervals.
# [1] = system: wtIDH1 pancreatic cancer (MiaPaCa-2, PANC-1, PDX TM01212); assay: Human PC xenografts and PDX in nude mice
# Description: as §1
# Chain of IDH1 (O75874 whole entry): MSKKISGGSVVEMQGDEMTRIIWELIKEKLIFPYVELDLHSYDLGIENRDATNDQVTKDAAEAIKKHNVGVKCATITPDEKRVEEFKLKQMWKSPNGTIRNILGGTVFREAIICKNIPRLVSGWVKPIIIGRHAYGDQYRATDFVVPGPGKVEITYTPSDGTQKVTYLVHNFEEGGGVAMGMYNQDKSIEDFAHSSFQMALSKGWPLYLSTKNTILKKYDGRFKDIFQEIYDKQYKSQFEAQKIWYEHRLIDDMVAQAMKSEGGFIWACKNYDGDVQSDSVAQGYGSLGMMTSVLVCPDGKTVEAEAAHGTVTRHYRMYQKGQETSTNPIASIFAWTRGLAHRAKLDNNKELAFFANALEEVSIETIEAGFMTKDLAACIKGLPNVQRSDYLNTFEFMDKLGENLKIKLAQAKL
structure (smiles),measurement,setting,value
"N#Cc1ccnc(N2C(=O)CC[C@H]2C(=O)N(c2cncc(F)c2)[C@H](C(=O)NC2CC(F)(F)C2)c2ccccc2Cl)c1 [AG-120, ivosidenib]",intracellular ROS,MiaPaCa-2 PC cells; higher Mg2+ levels,No such effect
same,intracellular ROS,MiaPaCa-2 PC cells; low Mg2+ combined with low glucose,surge in intracellular ROS
same,oxygen consumption,PC cells; low Mg2+ and glucose,severely impaired oxygen consumption
same,oxygen consumption,PC cells; standard Mg2+ and low glucose,no effect on oxygen consumption
same,allograft growth,KPC allografts,reduced the growth of KPC allografts
same,survival and tumor volumes,murine PC models,did not reach statistical significance
same,combination with chemotherapeutic agents,MiaPaCa-2 cells,enhanced the efficacy of chemotherapeutic agents
same,cell-free wtIDH1 activity inhibition,IDH1,highly potent
same,anti-tumor efficacy,"[1]; 150 mg/kg orally twice per day, PDX 75 mg/kg IP once daily",highly effective as a single agent
same,tolerability,"[1]; body weights, nude mice",tolerated the treatment very well
